Marks after values point to notes of the source that are not given here.
Columns and labels:
[1] = tested on: b2m−/− mice; test: Prevention of iron overload in beta2-microglobulin deficient mice; assay type: in vivo, mouse; conditions: 14 day treatment; for Total Liver Iron Reduction (%) / Total Spleen Iron Increase (%): ICP-OES; for 58Fe Liver Iron Reduction (%): ICP-MS
Method: The efficacy of the Fpn inhibitors to prevent liver iron accumulation in b2m−/− mice was investigated. Three weeks old b2−/− mice fed LID were dosed with either Fpn inhibitor or vehicle (methylcellulose; 10 ml/kg). Mice had access to drinking water supplemented with 1 mM^58Fe(II)-sulfate and 10 mM ascorbic acid. Dosing of Fpn inhibitor or vehicle followed by exposure to iron-containing water was repeated for 14 days. Mice were euthanized and the liver and spleen iron contents were analyzed by ICP-OES (all iron isotopes) and liver tissue was also analyzed for ^58Fe concentration (ICP-MS).

[2] = tested on: b2m−/− mice; test: Correction of hyperferremia in beta2-microglobulin deficient mice; assay type: in vivo, mouse
Description: Mutations in genes involved in sensing the systemic iron stores, such as hepcidin (Hamp1), hemochromatosis protein (HFE), hemojuvelin (HJV) and transferrin receptor 2 (TFR2) cause iron overload in mice and men. HFE, HJV and TFR2 molecules on hepatocytes are necessary for signaling of appropriate hepcidin production and their deficiency results in pathophysiologically low hepcidin levels and excessive iron absorption. HFE mutations is the most frequent cause of hereditary hemochromatosis (HH) in Caucasian adults. HFE is a MHC class I-like membrane molecule that associates with beta 2-microglobulin and participates in hepcidin transcriptional regulation through the bone morphogenetic protein receptor (BMPR) pathway. HFE−/− mice have decreased hepcidin levels, develop hyperferremia and high hepatic iron levels, which makes them a suitable animal model for studying iron overload in humans (Zhou, 1998). Mice deficient in beta 2-microglobulin (b2m−/−) develop hyperferremia and hemochromatosis similarly to HFE−/− animals, as beta 2-microglobulin is necessary for the cell-surface expression and function of HFE (Rothenberg and Voland, 1996). Due to the unavailability of HFE−/− mice, b2m−/− mice were used as a model of iron overload.
Female and male homozygous b2m−/− mice were supplied from Jackson Laboratories (B6.129P2-B2mtm1Unc/J, Stock Number: 002087) at age of 6 to 7 weeks and fed standard diet (Harlan Provimi Kliba 3436) ad libitum. Age and gender matched WT C57BL/6 mice were supplied by Charles River. To study the acute effects of ferroportin (Fpn) inhibitors in iron overload b2m−/− mice were treated with compounds or the corresponding amount of vehicle at a volume of 10 ml/kg body weight. […] WT controls received only vehicle. Three hours later, mice were pre-terminally anesthetized in isoflurane chambers and blood was collected by retro-orbital bleeding. Mice were sacrificed by cervical dislocation and spleens, livers and duodena were harvested and used for biomarker analysis. All experiments have been performed in compliance with license approved by the responsible veterinarian authorities. Serum was isolated by centrifugation of blood into gel-containing microtainers (BD Biosciences) and serum iron was determined by the MULTIGENT Iron assay (Abbott Diagnostics, Cat. 6K95). Four to nine mice per group were used and one-way ANOVA with Bonferroni's multiple comparison test was applied to analyze the statistical differences between the experimental groups.

[3] = molecular target: T1, ferroportin (Homo sapiens, UniProt Q9NP59); test: Inhibition of Iron Efflux by Ferroportin Inhibitors; assay type: cell-based; conditions: T47D cells, 58Fe in supernatant, 20 h; representative (FIG. 2)
T1 construct: host or cells: T47D cells
T1 sequence (Q9NP59 1-571): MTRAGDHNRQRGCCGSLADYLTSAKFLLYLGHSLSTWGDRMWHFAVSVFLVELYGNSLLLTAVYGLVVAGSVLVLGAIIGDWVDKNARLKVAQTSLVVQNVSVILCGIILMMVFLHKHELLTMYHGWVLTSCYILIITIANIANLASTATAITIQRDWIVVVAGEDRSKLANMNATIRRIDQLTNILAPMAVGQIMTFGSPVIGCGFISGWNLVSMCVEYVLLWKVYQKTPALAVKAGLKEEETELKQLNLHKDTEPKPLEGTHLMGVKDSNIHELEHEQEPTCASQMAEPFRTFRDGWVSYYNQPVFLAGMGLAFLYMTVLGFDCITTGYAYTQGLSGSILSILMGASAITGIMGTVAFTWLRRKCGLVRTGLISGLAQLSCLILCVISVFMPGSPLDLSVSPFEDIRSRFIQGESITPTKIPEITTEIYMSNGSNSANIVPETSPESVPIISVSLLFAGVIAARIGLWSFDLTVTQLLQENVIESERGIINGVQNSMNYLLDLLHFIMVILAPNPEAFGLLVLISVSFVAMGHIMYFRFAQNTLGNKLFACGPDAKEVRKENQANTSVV
Method: The activity of hepcidin and ferroportin inhibitor compounds regarding their ability to block iron export via ferroportin was tested on T47D cells (ECACC, Cat. 85102201) as described below.
Cells were plated in 24-well plates (Greiner, Cat. 662160) containing 350,000 cells/well and incubated overnight with 100 μM ^58Fe (^58Fe(II)-Sulfate, Vifor Pharma Batch No. ROR 3085) in 500 μM L-Ascorbic Acid (Sigma Aldrich, Cat. 795437) containing growth medium. […] A serial dilution of hepdicin (Bachem) or ferroportin inhibitors (4 μM-0.0064 μM, 5 fold dilution) was added in a total volume of 0.6 ml per well. Cells were incubated at 37° C. with 5% CO2 for 20 h. Supernatants were collected and ^58Fe was measured using inductively coupled plasma mass spectrometry (ICP-MS, Thermo Scientific, Element 2). Pellets were harvested for protein concentration measurements. Results are plotted as ng^58Fe in supernatant per mg protein in cell lysates.

Row | SMILES | Total Liver Iron Reduction (%) ([1]; female, 60 mg/kg p.o. b.i.d.) | Total Spleen Iron Increase (%) ([1]; female, 60 mg/kg p.o. b.i.d.) | Total Liver Iron Reduction (%) ([1]; male, 60 mg/kg p.o. b.i.d.) | IC50 [3] | 58Fe Liver Iron Reduction (%) ([1]; female, 20 mg/kg p.o. b.i.d.) | Total Liver Iron Reduction (%) ([1]; female, 20 mg/kg p.o. b.i.d.) | Total Spleen Iron Increase (%) ([1]; female, 20 mg/kg p.o. b.i.d.) | 58Fe Liver Iron Reduction (%) ([1]; female, 60 mg/kg p.o. b.i.d.) | 58Fe Liver Iron Reduction (%) ([1]; male, 20 mg/kg p.o. b.i.d.) | Total Spleen Iron Increase (%) ([1]; male, 20 mg/kg p.o. b.i.d.) | 58Fe Liver Iron Reduction (%) ([1]; male, 60 mg/kg p.o. b.i.d.) | Total Spleen Iron Increase (%) ([1]; male, 60 mg/kg p.o. b.i.d.) | further results
1 | O=C(NCc1ncccc1F)c1csc(CCNCCc2nc3ccccc3[nH]2)n1 [Example 94] | 57% | 65% | 79% | – | – | – | – | – | – | – | – | – | correction of elevated serum iron ([2]; b2m−/− mice, 50 mg/kg p.o. for 3 h (FIG. 5)): corrected the elevated serum iron to the levels observed in WT controls
2 | O=C(NCc1ncccc1F)c1coc(CCNCCc2nc3ccccc3[nH]2)n1 [Example 127] | 2% | 51% | 65*** % | 80 nM | 34% | −38% | 71* % | 63*** % | 71*** % | −7% | 73*** % | −16% | Total Liver Iron Reduction (%) ([1]; male, 20 mg/kg p.o. b.i.d.): 50** %; Serum Iron Reduction (%) ([2]; female, Dose 20 mg/kg oral, blood collected 1 or 3 hours after administration (time not given)): 47*** %; Serum Iron Reduction (%) ([2]; female, Dose 60 mg/kg oral, blood collected 1 or 3 hours after administration (time not given)): 74*** %; Serum Iron Reduction (%) ([2]; male, Dose 20 mg/kg oral, blood collected 1 or 3 hours after administration (time not given)): 21%; Serum Iron Reduction (%) ([2]; male, Dose 60 mg/kg oral, blood collected 1 or 3 hours after administration (time not given)): 83** %
3 | O=C(NCc1ncccc1F)c1coc(C2CN(CCc3nc4ccccc4[nH]3)C2)n1 [Example 208] | 8% | 150*** % | 84** % | – | 71* % | 15% | 56** % | 87** % | 58% | 21% | 94** % | 43% | Serum Iron Reduction (%) ([2]; female, Dose 20 mg/kg oral, blood collected 3 hours (##) after administration): 9%; Serum Iron Reduction (%) ([2]; female, Dose 60 mg/kg oral, blood collected 3 hours (##) after administration): 49*** %; Serum Iron Reduction (%) ([2]; male, Dose 20 mg/kg oral, blood collected 3 hours (##) after administration): 44%; Serum Iron Reduction (%) ([2]; male, Dose 60 mg/kg oral, blood collected 3 hours (##) after administration): 67** %
4 | CC[C@H](C)[C@@H]1NC(=O)[C@@H](NC(=O)[C@@H](NC(=O)[C@@H]2CCCN2C(=O)[C@H](Cc2ccccc2)NC(=O)[C@H](Cc2c[nH]cn2)NC(=O)[C@@H](NC(=O)[C@@H](N)CC(=O)O)[C@@H](C)O)[C@@H](C)CC)CSSC[C@@H](C(=O)N[C@@H](CCCCN)C(=O)N[C@H](C(=O)O)[C@@H](C)O)NC(=O)[C@@H]2CSSC[C@@H]3NC(=O)[C@@H]4CSSC[C@H](NC(=O)[C@H](Cc5ccccc5)NC1=O)C(=O)N[C@@H](CSSC[C@H](NC(=O)[C@H](CCCCN)NC(=O)[C@H](CO)NC(=O)[C@H](CCCNC(=N)N)NC(=O)[C@H](Cc1c[nH]cn1)NC3=O)C(=O)NCC(=O)N[C@@H](CCSC)C(=O)N2)C(=O)NCC(=O)N4 [hepcidin, reference compound] | – | – | – | 86 nM | – | – | – | – | – | – | – | – | –

From patent publication US10738041B2, “Ferroportin inhibitors” (Vifor (International) AG, priority 2015, dated 2020)
